From patent US20250002467A1, “DESIGN, SYNTHESIS AND MECHANISMS OF ANTICANCER ACTIVITY OF NEW ACETYLATED 5-AMINOSALICYLATE-THIAZOLINONE HYBRID DERIVATIVES” (University of Sharjah, priority 2023, published 2025)
“Also recorded” adds a separate entry of the source.

Key:
Assay type in all cases: cell-based
U87 = assay: SRB cytotoxicity assay, U87; settings: for IC50: U87, SRB, mean ± SEM
Excerpt: (§1) Eight different cancer cell lines were acquired from the Radiobiology and Experimental Radio Oncology lab, University Medical Center, Hamburg University, Hamburg, Germany. MCF7, MDA-MB-231 (breast cancer), and A549 (lung cancer) cells were maintained in RPMI medium while HCT116 (colon cancer), HepG2 (liver cancer), U87, U373 (glioblastoma), and HeLa (cervical cancer) were maintained in DMEM supplemented with 10% FBS and 1% penicillin/streptomycin (Sigma Aldrich, Missouri, USA). Normal human fibroblast (F180) cells were maintained in DMEM supplemented with 15% FBS. Normal human mammary epithelial cell line (HME1) were maintained in DMEM/F-12 medium supplemented with 10% FBS. All incubations were done at 37° C. in a humidified atmosphere of 5% CO2. All cell lines were authenticated by short tandem repeat (STR) profiling. The CDK4 knockout cells (provided by Dr. Samrein Ahmed, University of Sharjah, United Arab Emirates) were generated by CRISPR-CAS9 technology and were maintained in DMEM supplemented with 10% FBS.
(§2) The cytotoxic effects of HH32 and HH33 compounds were evaluated at various concentrations ranging from 0.0001 to 100 μM by sulphrhodamine-B (SRB) assay as described previously. The anti-proliferative activity was expressed as growth inhibitory concentration (IC50) values, which were calculated by the sigmoidal dose-response curve fitting method using Graph pad prism 6 software (GraphPad Software, San Diego, CA, USA).

[1] = system: MCF7, HCT116, HeLa and A549 cells; assay: Cell cycle analysis by flow cytometry, four cell lines; settings: for G1 and S phases arrest: four cell lines
Method: The effect of the HH32 and HH33 compounds on the distribution of cell cycle at different time points (2, 4, 8, 24, 48, and 72 hours) was analyzed using flow cytometry. Briefly, the cells were harvested and fixed in 70% ethanol for 24 hours at −20° C. The fixed cells were treated with RNAase […] (Sigma Aldrich, Missouri, USA) and stained with propidium iodide […] (Sigma Aldrich, Missouri, USA). The data were acquired using BD Accuri C6 flow cytometer (Becton Dickenson, San Jose, CA, USA) and analysis was done using Flow Jo software (Tree Star, Inc, Ashland, OR, USA).

MCF7 = assay: SRB cytotoxicity assay, MCF7; settings: for IC50: MCF7, SRB, mean ± SEM
Excerpt: as §1, §2

HepG2 = assay: SRB cytotoxicity assay, HepG2
Excerpt: as §1, §2

[2] = system: MCF7, HCT-116, HeLa and A549 cells; assay: Western blot protein expression analysis; settings: for cyclin E, cyclin D1 and CDK2 levels: G1-S phase transition proteins; for phospho-Rb (ser249): HCT116 and HeLa cells; for level of p-H2Ax (y-H2Ax): MCF7, HeLa, HCT116, and A549 cells, 24 h; for cleavage of caspase-8: all cell lines; for ATR/Chk1 signaling: four cell lines
Method: The protein expression analysis was done after treatment with […] of HH32 and HH33 compounds for 24 hours by western blot. Cell lysates were prepared using lysis buffer containing 20% SDS, glycerol, 1M Tris (pH 6.8) and supplemented with protease and phosphatase inhibitors (Sigma Aldrich, Missouri, USA). The proteins were separated by SDS-PAGE and transblotted into nitrocellulose membrane (Biorad, Hercules, CA, USA). Membrane were incubated overnight at 4° C. with the following primary antibodies: 7H2AX, H2Ax, p21, CDC2, CDC25c, cyclin B, c-Myc, Bid, ATM, p-ATM, ATR, p-ATR, Chk1, p-Chk1, Chk2, p-Chk2, caspase 9, caspase 8, pRb (Ser807/811) (Cell Signaling Technology, Massachusetts, USA), p53, cyclin A, cyclin E, cyclin D1, CDK2, Rb, pRb (Ser249) (Santa Cruz Biotech, Texas, USA) and β-actin (Sigma Aldrich, Missouri, USA). Membranes were then incubated with respective mouse/rabbit secondary antibody (Cell Signaling Technology, Massachusetts, USA) for 1 hour at room temperature and detected by enhanced chemiluminescence (ECL) (Biorad, Hercules, CA, USA) method using Chemi Doc imaging system (Biorad, Hercules, CA, USA). The protein bands were quantified using Image lab™ software (Biorad, Hercules, CA, USA).

HeLa = assay: SRB cytotoxicity assay, HeLa
Excerpt: as §1, §2

MCF7 cells = assay: Metabolic analysis by GC-MS
Method: The release of different metabolites following HH32 and HH33 treatment on MCF7 cells was detected using Gas Chromatography-Mass Spectrometry (GC-MS) (Shimadzu, Kyoto, Japan) as was described previously. GC-MS analysis was performed using a QP2010 gas chromatography-mass spectrometer (GC-2010 coupled with a GC-MS QP-2010 Ultra) equipped with an auto-sampler (AOC-20i+s) from Shimadzu (Tokyo, Japan), using Rtx-5 ms column (30 m length×0.25 mm inner diameter x 0.25 μm film thickness; Restek, Bellefonte, PA, USA). Helium (99.9% purity) was used as the carrier gas with the column flow rate of 1 mL/min. Data collection and analysis were performed using MSD Enhanced Chemstation software (Shimadzu, Kyoto, Japan). GC total ion chromatograms (TIC) and fragmentation patterns of the compound were identified using the NIST/EPA/NIH Mass Spectral Library (NIST 14).
Preprocessing and data analysis were performed using an in-house R script. Only compounds registered in Human Metabolome Database (HMDB 4.0) were considered for further analysis. Compounds with more than 70% of missing values were considered unreliable and therefore excluded. Probabilistic Quotient Normalization was used to normalize data due to dilution effects in the extraction procedure. Missing metabolite measurements were imputed using the k-nearest neighbor algorithm with k—3. […] To account for multiple testing, a false discovery rate (FDR) of <15% was applied to reduce the identification of false positives. FDRs were calculated using the q conversion algorithm in multiple comparisons. Principal component analysis (PCA) was used to visualize the metabolomic data. Data were mean-centered and scaled to unit variance before PCA.

MDA-MB-231 = assay: SRB cytotoxicity assay, MDA-MB-231
Excerpt: as §1, §2

| Compound | Selectivity index (U87; F180 versus U87) | Selectivity index (U87; HME1 versus U87) | IC50 (U87) | G1 and S phases arrest [1] | Selectivity index (MCF7; F180 versus MCF7) | Selectivity index (MCF7; HME1 versus MCF7) | IC50 (MCF7) | Selectivity index (HepG2; F180 versus HepG2) | Selectivity index (HepG2; HME1 versus HepG2) | cyclin E, cyclin D1 and CDK2 levels [2] | phospho-Rb (ser249) [2] | phospho-Rb (ser807/811) ([2]; HCT-116) | expression of p53 and p21 ([2]; HeLa cells) | phospho-Rb (ser807/811) ([2]; HeLa cells) | expression of p53 and p21 ([2]; MCF7, HCT-116 and A549 cells) | phosphorylation status of ATM and Chk2 ([2]; MCF7, HCT-116 and A549 cells) | level of p-H2Ax (y-H2Ax) ([2]; 0.5 and 1 μM) | cleavage of caspase-8 [2] | ATR/Chk1 signaling [2] | Selectivity index (HeLa; F180 versus HeLa) | also measured |
| --- | --- | --- | --- | --- | --- | --- | --- | --- | --- | --- | --- | --- | --- | --- | --- | --- | --- | --- | --- | --- | --- |
| COC(=O)c1cc(NC2=NC(=O)C(=Cc3ccc(C)cc3)S2)ccc1OC(C)=O [HH32, Methyl 2-acetoxy-5-[(5-(4-methylbenzylidene)-4 (H)-oxo-1,3-thiazol-2-yl)-amino]benzoate] | 2.04 | 4.1 | 6530 ± 90 nM | no signs | 3.88 | 7.8 | 3440 ± 320 nM | 5.36 | 10.8 | slightly changed | increased | reduced | reduced | increased | substantially increased | increased significantly | marked elevation | cleaved | activate | 22.2 | IC50 (HepG2; HepG2, SRB, mean ± SEM): 2490 ± 110 nM; total c-Myc protein level ([2]; 1 μM, MCF7 and HCT-116 cells): downregulation; phosphorylation status of ATM and Chk2 ([2]; HeLa cells): increased significantly; Selectivity index (HeLa; HME1 versus HeLa): 44.65; IC50 (HeLa; HeLa, SRB, mean ± SEM): 600 ± 470 nM; Guanosine levels (MCF7 cells; vs untreated cells): altered; Selectivity index (MDA-MB-231; F180 versus MDA-MB-231): 0.87; Selectivity index (MDA-MB-231; HME1 versus MDA-MB-231): 1.7; IC50 (MDA-MB-231; MDA-MB-231, SRB, mean ± SEM): 15350 ± 80 nM |
| COC(=O)c1cc(NC2=NC(=O)C(=Cc3ccc(N(C)C)cc3)S2)ccc1OC(C)=O [HH33, Methyl 2-acetoxy-5-[(5-(4-dimethylaminobenzylidene)-4 (H)-oxo-1,3-thiazol-2-yl)-amino]benzoate] | 3.8 | 9 | 1030 ± 110 nM | no signs | 4.89 | 11.4 | 810 ± 340 nM | 10.3 | 24 | slightly changed | increased | reduced | reduced | increased | substantially increased | increased significantly | marked elevation | cleaved | activate | 16.3 | percentage of cancer cells arrested at the G2/M border [1]: up to 90%; total c-Myc protein level ([2]; 0.5 and 1 μM, four cancer cell lines): decreased; cleavage of caspase-9 ([2]; MCF7, HeLa and A549 cells): increase; reducing expression of G2/M progression proteins (cyclin A, cyclin B, CDC25c and CDC2/CDK1) ([2]; compared with HH32): more effective than HH32; Selectivity index (HeLa; HME1 versus HeLa): 38.5; activity compared with doxorubicin (HeLa; HeLa cells): superior activity than doxorubicin; increase of palmitic acid (MCF7 cells): 20%; reduction of 1-Monopalmitin level (MCF7 cells; compared to control cells): 4.5 fold; level of 1-Monopalmitin (MCF7 cells; vs untreated cells): significant decreased; level of Adenosine (MCF7 cells; vs untreated cells): significant decreased; also recorded: significant reduction; level of Decanoic Acid (MCF7 cells; vs untreated cells): significant decreased; also recorded: reduction; Selectivity index (MDA-MB-231; F180 versus MDA-MB-231): 0.99; Selectivity index (MDA-MB-231; HME1 versus MDA-MB-231): 2.3 |
